{
  "source": "patent US11802107B2",
  "about": "“Compounds and methods of use” (Signum Biosciences, Inc., priority 2017, dated 2023)",
  "key": {"[1]": {"system": "TSLP", "assay": "Calcipotriol-induced TSLP in vivo", "details": "CD1 mice, calcipotriol 4 nmol/ear, 24 hours", "source_text": "CD1 mice were topically exposed to 4 nmol/ear Calcipotriol. Five minutes after challenge compounds were applied. Twenty-four hours later, protein samples were extracted from ear skin biopsies and analyzed for TSLP levels by ELISA method. Vehicle for compounds were 60:40 EtOH:H2O (Compound C) or 1:1 EtOH:Acetone (AN2728). Data represents average±S.E. of a representative set from 2 independent experiments (n=6 mice per group). *p value<0.05; **p value≤0.01 by Student t test compared to Calcipotriol+vehicle-only treated animals. ns equals not significant."}, "[2]": {"system": "PHA-induced cytokines", "assay": "PHA-induced cytokines on PBMCs (Example F)", "assay_type": "cell-based, human", "details": "PHA-L instead of anti-CD3/CD28 beads", "protocol": "Cryopreserved human Peripheral Blood Mononuclear cells (PBMCs) from healthy adult donors were obtained from Zen Bio, Inc (Cat No. SER-PBMC-F). Cells were cultured in 96-well plates with lymphocyte media (Cat No. LYMPH-1) and were pre-treated with test materials (≤100 μM) for 2 hours and later co-treated with test materials and anti-CD3/CD28 beads (Thermo-Fisher; Cat No. 11131D) at 1:0.4 PBMC:bead ratio for 24 hours at 37° C. and 5% CO2. After incubation, cell media supernatants were harvested and used to measure cytokine levels (IL-4, IL-5, IL-10) using ELISA kits (BD Biosciences® #555194, #555157; R&D Systems® #DY317). Results were represented as percent of inhibition relative to untreated and anti-CD3/CD28 beads-only treated cells. IC50 values were determined by non-linear regression analysis using the four-parameter logistic equation.\nBy a similar method, but instead of anti-CD3/CD28 beads (Thermo-Fisher; Cat No. 11131D), compounds A, C, T and E were treated with LPS (Sigma Aldrich, Cat. No. LF4321) to measure inhibition of LPS-induced cytokines, and compounds C and T were treated with PHA-L (Sigma Aldrich, Cat No. 11249738001) to measure inhibition of PHA-induced cytokines."}, "[3]": {"system": "subjects with mild to moderate acne", "assay": "8-week clinical study in subjects with mild to moderate acne", "assay_type": "in vivo", "design": "scale not given here", "details": "E 1% w/w, BPO 3% w/w, human", "source_text": "Subjects used the assigned product at home for 8 weeks. Subjects returned post baseline at week 2, 4 and 8. At each visit subjects underwent expert clinical grading and test site photography. […] The severity of acne signs and symptoms on the faces of >18 yo subjects were clinically assessed by IGA scale during an 8-week Study period. In addition, UV light mode was utilized to observe porphyrins fluorescence (orange-red dots)."}},
  "data": [
    {"smiles": "C/C(=C\\CSC[C@H](NC(=O)N(C)CC(=O)O)C(=O)O)CCCC(C)CCCC(C)CCCC(C)C", "note": "(stereo partly drawn) [Compound C, (2R)-2-{[(carboxymethyl)(methyl)carbamoyl]amino}-3-{[(2E)-3,7,11,15-tetramethylhexadec-2-en-1-yl]sulfanyl}propanoic acid]", "values": [
      {"measurement": "AVG - TSLP", "setting": "[1]; topical dose 4.0 μg/ear", "value": 2753.6, "unit": "pg/6 mm biopsy"},
      {"measurement": "TSLP % inhb", "setting": "[1]; topical dose 4.0 μg/ear", "value": 15, "unit": "%"},
      {"measurement": "AVG - TSLP", "setting": "[1]; topical dose 40.0 μg/ear", "value": 1156.1, "unit": "pg/6 mm biopsy"},
      {"measurement": "TSLP % inhb", "setting": "[1]; topical dose 40.0 μg/ear", "value": 74, "unit": "%"},
      {"measurement": "AVG - TSLP", "setting": "[1]; topical dose 400.0 μg/ear", "value": 759.9, "unit": "pg/6 mm biopsy"},
      {"measurement": "TSLP % inhb", "setting": "[1]; topical dose 400.0 μg/ear", "value": 88, "unit": "%"},
      {"measurement": "inhibition of PHA-induced cytokines", "setting": "[2]", "value": "did not show significant inhibition"}
    ]},
    {"smiles": "N#Cc1ccc(Oc2ccc3c(c2)COB3O)cc1", "note": "[AN2728, reference compound]", "values": [
      {"measurement": "AVG - TSLP", "setting": "[1]; topical dose 4.0 μg/ear", "value": 2495.1, "unit": "pg/6 mm biopsy"},
      {"measurement": "TSLP % inhb", "setting": "[1]; topical dose 4.0 μg/ear", "value": 51, "unit": "%"},
      {"measurement": "AVG - TSLP", "setting": "[1]; topical dose 40.0 μg/ear", "value": 2235.3, "unit": "pg/6 mm biopsy"},
      {"measurement": "TSLP % inhb", "setting": "[1]; topical dose 40.0 μg/ear", "value": 57, "unit": "%"},
      {"measurement": "AVG - TSLP", "setting": "[1]; topical dose 400.0 μg/ear", "value": 352.1, "unit": "pg/6 mm biopsy"},
      {"measurement": "TSLP % inhb", "setting": "[1]; topical dose 400.0 μg/ear", "value": 102, "unit": "%"}
    ]},
    {"smiles": "C/C(=C\\CSC[C@H](NC(=O)N1CCC[C@H]1C(=O)O)C(=O)O)CCCC(C)CCCC(C)CCCC(C)C", "note": "(stereo partly drawn) [Compound E]", "values": [
      {"measurement": "Investigator Global Assesment (IGA) Scale", "setting": "[3]; 2 week", "value": 2},
      {"measurement": "Investigator Global Assesment (IGA) Scale", "setting": "[3]; 4 week", "value": 1},
      {"measurement": "Investigator Global Assesment (IGA) Scale", "setting": "[3]; 8 week", "value": 0},
      {"measurement": "Investigator Global Assesment (IGA) Scale", "setting": "[3]; Baseline", "value": 3}
    ]},
    {"smiles": "C/C(=C\\CSC[C@H](NC(=O)COCC(=O)O)C(=O)O)CCCC(C)CCCC(C)CCCC(C)C", "note": "(stereo partly drawn) [Compound T]", "values": [
      {"measurement": "inhibition of PHA-induced cytokines", "setting": "[2]", "value": "did not show significant inhibition"}
    ]}
  ]
}
